Measured values from PubChem BioAssay (NCI).
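Dose response: 5 concentrations. Exposure: 48 h. Format: 96-well plates. Endpoint: linear interpolation; highest concentration if not reached. GI50 is the concentration that inhibits growth by half. TGI is the concentration that stops growth completely.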

Columns and labels:
Test in all cases: inhibition of tumour cell growth, NCI panel, 48 h
CCRF-CEM leukemia = system: CCRF-CEM leukemia
COLO 205 colon = system: COLO 205 colon
HCC-2998 colon = system: HCC-2998 colon
K-562 leukemia = system: K-562 leukemia
LOX IMVI melanoma = system: LOX IMVI melanoma
OVCAR-4 ovarian = system: OVCAR-4 ovarian
RPMI-8226 leukemia = system: RPMI-8226 leukemia
SF-268 CNS = system: SF-268 CNS
SNB-19 CNS = system: SNB-19 CNS
U251 CNS = system: U251 CNS

In the case of `C=C1C(=O)O[C@@H]2C(=O)[C@@H](C)[C@@H]3C=CC(=O)[C@@]3(C)[C@@H](OC(=O)/C(C)=C\C)[C@H]12`, the TGI (CCRF-CEM leukemia) is reported as 2.24 µM, the TGI (COLO 205 colon) is reported as 0.725 µM and the TGI (HCC-2998 colon) is reported as 3.23 µM. For the same compound, the TGI (K-562 leukemia) was 1.64 µM, the TGI (LOX IMVI melanoma) was 1.6 µM and the TGI (OVCAR-4 ovarian) was 18.2 µM. For the same compound, the TGI (RPMI-8226 leukemia) was 1.25 µM, the TGI (SF-268 CNS) was 6.22 µM and the TGI (SNB-19 CNS) was 25.9 µM. The TGI (U251 CNS) was 6.67 µM.

Work on `Cc1n[nH]c(=S)n1/N=C/c1ccc(F)c(Oc2ccccc2)c1` yielded a GI50 (CCRF-CEM leukemia) of 40.5 µM, a TGI (CCRF-CEM leukemia) greater than 100 µM and a GI50 (COLO 205 colon) of 68.1 µM. It also gave a TGI (COLO 205 colon) greater than 100 µM, a GI50 (HCC-2998 colon) of 69.5 µM and a TGI (HCC-2998 colon) greater than 100 µM. For the same compound, the GI50 (K-562 leukemia) was 54.5 µM, the TGI (K-562 leukemia) was greater than 100 µM and the GI50 (LOX IMVI melanoma) was 51.1 µM. The TGI (LOX IMVI melanoma) was greater than 100 µM, the GI50 (OVCAR-4 ovarian) was 44.9 µM and the TGI (OVCAR-4 ovarian) was greater than 100 µM. For the same compound, the GI50 (RPMI-8226 leukemia) was 42.7 µM, the TGI (RPMI-8226 leukemia) was greater than 100 µM and the GI50 (SF-268 CNS) was 28.4 µM. It also gave a TGI (SF-268 CNS) greater than 100 µM, a GI50 (SNB-19 CNS) of 55.9 µM and a TGI (SNB-19 CNS) greater than 100 µM. It also gave a GI50 (U251 CNS) of 50.3 µM and a TGI (U251 CNS) greater than 100 µM.

`O=C1C(=O)N(C(=O)c2ccc(Cl)c(Cl)c2)c2ccc(Cl)cc21` was tested, and the TGI (CCRF-CEM leukemia) was greater than 100 µM, the TGI (COLO 205 colon) was greater than 100 µM and the TGI (K-562 leukemia) was greater than 100 µM. It also gave a TGI (LOX IMVI melanoma) greater than 100 µM, a TGI (OVCAR-4 ovarian) greater than 100 µM and a TGI (RPMI-8226 leukemia) greater than 100 µM. It also gave a TGI (SF-268 CNS) greater than 100 µM, a TGI (SNB-19 CNS) greater than 100 µM and a TGI (U251 CNS) greater than 100 µM.

For `CCN(CC)CCOc1ccc(/C(=C(\C)Cc2ccc(OC)cc2)c2ccc(OC(=O)NCc3ccccc3)cc2)cc1`, the GI50 (CCRF-CEM leukemia) was 2.34 µM, the TGI (CCRF-CEM leukemia) was 6.45 µM and the GI50 (COLO 205 colon) was 1.86 µM. It also gave a TGI (COLO 205 colon) of 3.76 µM, a GI50 (HCC-2998 colon) of 1.84 µM and a TGI (HCC-2998 colon) of 3.62 µM. It also gave a GI50 (K-562 leukemia) of 1.75 µM, a TGI (K-562 leukemia) of 4.52 µM and a GI50 (LOX IMVI melanoma) of 1.59 µM. The TGI (LOX IMVI melanoma) was 3 µM, the GI50 (OVCAR-4 ovarian) was 2.47 µM and the TGI (OVCAR-4 ovarian) was 7.51 µM. The GI50 (RPMI-8226 leukemia) was 2.13 µM, the TGI (RPMI-8226 leukemia) was 4.4 µM and the GI50 (SF-268 CNS) was 2.87 µM. For the same compound, the TGI (SF-268 CNS) was 10.7 µM, the GI50 (SNB-19 CNS) was 3.5 µM and the TGI (SNB-19 CNS) was 11.6 µM. For the same compound, the GI50 (U251 CNS) was 1.83 µM and the TGI (U251 CNS) was 3.43 µM.

`Cc1cc(O)c(C(c2cccnc2)c2c(O)cc(C)[nH]c2=O)c(=O)[nH]1` showed a TGI (CCRF-CEM leukemia) greater than 100 µM, a TGI (COLO 205 colon) greater than 100 µM and a TGI (K-562 leukemia) greater than 100 µM. The TGI (LOX IMVI melanoma) was greater than 100 µM, the TGI (OVCAR-4 ovarian) was greater than 100 µM and the TGI (RPMI-8226 leukemia) was greater than 100 µM. For the same compound, the TGI (SF-268 CNS) was greater than 100 µM, the TGI (SNB-19 CNS) was greater than 100 µM and the TGI (U251 CNS) was greater than 100 µM.

Work on `CN1CCC[C@@H]1CCO[C@](C)(c1ccccc1)c1ccc(Cl)cc1` yielded a GI50 (COLO 205 colon) of 1.75 µM, a TGI (COLO 205 colon) of 3.56 µM and a GI50 (HCC-2998 colon) of 3.41 µM. The TGI (HCC-2998 colon) was 13.7 µM, the GI50 (LOX IMVI melanoma) was 3.02 µM and the TGI (LOX IMVI melanoma) was 14.2 µM. For the same compound, the GI50 (OVCAR-4 ovarian) was 8.46 µM, the TGI (OVCAR-4 ovarian) was 22 µM and the GI50 (SF-268 CNS) was 9 µM. For the same compound, the TGI (SF-268 CNS) was 21.5 µM, the GI50 (SNB-19 CNS) was 8.42 µM and the TGI (SNB-19 CNS) was 22.2 µM. It also gave a GI50 (U251 CNS) of 3.83 µM and a TGI (U251 CNS) of 15.8 µM.

`CCOC(=O)c1c(C)nc2ccc(Cl)cc2c1-c1ccccc1` was tested, and the GI50 (CCRF-CEM leukemia) was 18.8 µM, the TGI (CCRF-CEM leukemia) was 48.9 µM and the GI50 (COLO 205 colon) was 17.9 µM. It also gave a TGI (COLO 205 colon) of 53.4 µM, a GI50 (HCC-2998 colon) of 19.4 µM and a TGI (HCC-2998 colon) of 46.9 µM. It also gave a GI50 (K-562 leukemia) of 20.1 µM, a TGI (K-562 leukemia) greater than 100 µM and a GI50 (LOX IMVI melanoma) of 17.7 µM. The TGI (LOX IMVI melanoma) was 37.8 µM, the GI50 (OVCAR-4 ovarian) was 20.6 µM and the TGI (OVCAR-4 ovarian) was 66.6 µM. For the same compound, the GI50 (RPMI-8226 leukemia) was 15.9 µM, the TGI (RPMI-8226 leukemia) was 40 µM and the GI50 (SF-268 CNS) was 19.3 µM. The TGI (SF-268 CNS) was 44.4 µM, the GI50 (SNB-19 CNS) was 14.4 µM and the TGI (SNB-19 CNS) was 34.9 µM. For the same compound, the GI50 (U251 CNS) was 19.1 µM and the TGI (U251 CNS) was 40.6 µM.

In the case of `CCOC(=O)c1ccc(N(CCOS(C)(=O)=O)CCOS(C)(=O)=O)cc1C`, the GI50 (CCRF-CEM leukemia) is reported as 10 µM, the TGI (CCRF-CEM leukemia) is reported as greater than 100 µM and the GI50 (COLO 205 colon) is reported as 38.4 µM. It also gave a TGI (COLO 205 colon) greater than 100 µM, a GI50 (HCC-2998 colon) of 28.1 µM and a TGI (HCC-2998 colon) of 66.6 µM. The GI50 (K-562 leukemia) was 49.7 µM, the TGI (K-562 leukemia) was greater than 100 µM and the GI50 (LOX IMVI melanoma) was 29.1 µM. For the same compound, the TGI (LOX IMVI melanoma) was greater than 100 µM, the GI50 (OVCAR-4 ovarian) was 20.9 µM and the TGI (OVCAR-4 ovarian) was 46.8 µM. The GI50 (RPMI-8226 leukemia) was 22.2 µM, the TGI (RPMI-8226 leukemia) was greater than 100 µM and the GI50 (SF-268 CNS) was 22 µM. It also gave a TGI (SF-268 CNS) of 82.7 µM, a GI50 (SNB-19 CNS) of 62.6 µM and a TGI (SNB-19 CNS) greater than 100 µM. For the same compound, the GI50 (U251 CNS) was 26.4 µM and the TGI (U251 CNS) was greater than 100 µM.
